Laboratory results from patent US7452693B2, “Discrete acyltransferases associated with type I polyketide synthases and methods of use” (Wisconsin Alumni Research Foundation, priority 2001, dated 2008).

Legend:
[1] = system: HELA S3, sarcoma 180, B-16, Colon 26, and leukemia P388; details: cited from earlier work
[2] = system: S. atroolivaceus; test: Growth inhibition of S. atroolivaceus by antibiotics; type: cell-based, Streptomyces atroolivaceus; details: for concentration for complete inhibition of growth: S. atroolivaceus; for sensitivity of S. atroolivaceus: in words
Protocol: S. atroolivaceus grows very well at 30° C.; it doesn't grow at temperature beyond 35° C. […] Thus, E. coli—Streptomyces shuttle vectors pOJ260 (suicide vector, Am^R) and pKC1139 (self-replicating vector, Am^R) were chosen to make the gene-disruption constructs pYC12 and pYC20, respectively. The concentration of antibiotic (Am) for selection of transformants/exconjugates is 50 μg/ml.

SMILES	activity against drug-resistant tumors ([1]; murine models inoculated with tumors resistant to cisplatin, doxorubicin, mitomycin, or cyclophosphamide)	antitumor activity ([1]; murine tumor models in vivo)	concentration for complete inhibition of growth [2] [µg/mL]	sensitivity of S. atroolivaceus [2]	sensitivity of S. atroolivaceus ([2]; listed as apromycin)
C/C1=C\[C@@H](O)C(=O)/C=C/C=C\c2csc(n2)[C@@H](C)NC(=O)C[C@@]2(CC1)[S+]([O-])SC(=O)[C@]2(C)O (stereo partly shown) [Lnm, Leinamycin]	active	potent antitumor activity	–	–	–
CN[C@@H]1[C@@H](O[C@H]2O[C@H](CO)[C@@H](N)[C@H](O)[C@H]2O)OC2C[C@@H](N)[C@@H](O[C@H]3[C@H](O)[C@@H](O)[C@H](N)C[C@@H]3N)OC2[C@@H]1O (stereo partly shown) [apramycin]	–	–	10	sensitive	highly sensitive
C=C(NC(=O)C(=C)NC(=O)c1csc(C2=N[C@@H]3c4csc(n4)[C@H]4NC(=O)c5csc(n5)[C@H]([C@](C)(O)[C@@H](C)O)NC(=O)[C@H]5CSC(=N5)/C(=C/C)NC(=O)[C@H]([C@@H](C)O)NC(=O)c5csc(n5)[C@]3(CC2)NC(=O)[C@H](C)NC(=O)C(=C)NC(=O)[C@H](C)NC(=O)[C@H]([C@@H](C)CC)N[C@@H]2C=Cc3c([C@H](C)O)cc(nc3[C@H]2O)C(=O)O[C@@H]4C)n1)C(N)=O [thiostrepton]	–	–	3	highly sensitive	–
